In ChEMBL document CHEMBL1147637, “Synthesis and biological activity of selective azasugar-based TACE inhibitors” (Bioorg Med Chem Lett, 2004):

Legend:
Interstitial collagenase = target: T1, Interstitial collagenase (Homo sapiens, UniProt P03956); assay: Inhibition of recombinant human matrix metalloprotease-1
T1 sequence (P03956 whole entry): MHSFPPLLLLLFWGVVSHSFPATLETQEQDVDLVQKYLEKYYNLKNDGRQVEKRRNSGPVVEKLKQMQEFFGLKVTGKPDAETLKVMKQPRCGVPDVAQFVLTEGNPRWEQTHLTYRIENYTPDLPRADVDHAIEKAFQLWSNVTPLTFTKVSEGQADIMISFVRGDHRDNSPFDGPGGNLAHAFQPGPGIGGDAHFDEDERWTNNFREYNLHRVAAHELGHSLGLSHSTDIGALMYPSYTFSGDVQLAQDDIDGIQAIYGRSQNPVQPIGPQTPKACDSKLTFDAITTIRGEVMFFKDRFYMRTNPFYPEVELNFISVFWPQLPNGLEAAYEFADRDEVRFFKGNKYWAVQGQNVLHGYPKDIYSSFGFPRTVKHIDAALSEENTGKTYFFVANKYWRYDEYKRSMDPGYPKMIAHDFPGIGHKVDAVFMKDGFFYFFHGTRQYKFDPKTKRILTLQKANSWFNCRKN

[1] = target: Disintegrin and metalloproteinase domain-containing protein 17 (Homo sapiens, UniProt P78536); assay: Inhibition of recombinant human TNF-alpha converting enzyme
Stromelysin-1 = Stromelysin-1 (Homo sapiens, UniProt P08254); assay: Inhibition of recombinant human matrix metalloprotease-3
[2] = target: Matrix metalloproteinase-9 (Homo sapiens, UniProt P14780); assay: Inhibition of recombinant human matrix metalloprotease-9
Matrix metalloproteinase-9, sequence (P14780 whole entry): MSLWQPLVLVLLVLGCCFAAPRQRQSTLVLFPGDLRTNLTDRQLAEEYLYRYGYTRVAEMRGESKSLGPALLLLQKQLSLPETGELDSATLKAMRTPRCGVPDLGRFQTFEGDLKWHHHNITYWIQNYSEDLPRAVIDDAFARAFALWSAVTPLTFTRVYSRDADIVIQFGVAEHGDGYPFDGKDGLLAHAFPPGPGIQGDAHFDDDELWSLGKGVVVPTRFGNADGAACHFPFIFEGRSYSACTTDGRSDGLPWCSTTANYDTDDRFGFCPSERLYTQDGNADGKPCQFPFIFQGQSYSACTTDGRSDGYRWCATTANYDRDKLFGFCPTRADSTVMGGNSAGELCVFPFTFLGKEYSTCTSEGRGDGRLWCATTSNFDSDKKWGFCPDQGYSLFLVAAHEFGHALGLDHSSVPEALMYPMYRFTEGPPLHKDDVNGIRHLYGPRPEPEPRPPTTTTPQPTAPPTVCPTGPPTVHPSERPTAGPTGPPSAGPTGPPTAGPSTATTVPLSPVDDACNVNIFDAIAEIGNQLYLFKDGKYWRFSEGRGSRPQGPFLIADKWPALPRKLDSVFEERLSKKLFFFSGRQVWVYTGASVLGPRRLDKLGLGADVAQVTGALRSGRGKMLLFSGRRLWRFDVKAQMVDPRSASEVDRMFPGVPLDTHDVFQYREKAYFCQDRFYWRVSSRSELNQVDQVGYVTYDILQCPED

Stromelysin-1, sequence (P08254 whole entry): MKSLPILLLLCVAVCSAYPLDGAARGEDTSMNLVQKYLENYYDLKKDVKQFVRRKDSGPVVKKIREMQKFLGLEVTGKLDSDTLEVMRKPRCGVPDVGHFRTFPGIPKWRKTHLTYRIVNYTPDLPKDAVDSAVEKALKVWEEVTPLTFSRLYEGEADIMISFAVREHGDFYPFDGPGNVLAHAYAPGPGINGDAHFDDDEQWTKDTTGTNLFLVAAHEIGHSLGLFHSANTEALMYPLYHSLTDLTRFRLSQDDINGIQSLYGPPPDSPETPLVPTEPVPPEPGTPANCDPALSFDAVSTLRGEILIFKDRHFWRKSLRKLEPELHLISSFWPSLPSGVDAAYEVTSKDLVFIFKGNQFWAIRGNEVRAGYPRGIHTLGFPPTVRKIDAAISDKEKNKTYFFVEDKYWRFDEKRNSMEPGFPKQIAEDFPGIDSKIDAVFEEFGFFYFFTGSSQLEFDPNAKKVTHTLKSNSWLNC
Disintegrin and metalloproteinase domain-containing protein 17, sequence (P78536 whole entry, the tested form may be a part): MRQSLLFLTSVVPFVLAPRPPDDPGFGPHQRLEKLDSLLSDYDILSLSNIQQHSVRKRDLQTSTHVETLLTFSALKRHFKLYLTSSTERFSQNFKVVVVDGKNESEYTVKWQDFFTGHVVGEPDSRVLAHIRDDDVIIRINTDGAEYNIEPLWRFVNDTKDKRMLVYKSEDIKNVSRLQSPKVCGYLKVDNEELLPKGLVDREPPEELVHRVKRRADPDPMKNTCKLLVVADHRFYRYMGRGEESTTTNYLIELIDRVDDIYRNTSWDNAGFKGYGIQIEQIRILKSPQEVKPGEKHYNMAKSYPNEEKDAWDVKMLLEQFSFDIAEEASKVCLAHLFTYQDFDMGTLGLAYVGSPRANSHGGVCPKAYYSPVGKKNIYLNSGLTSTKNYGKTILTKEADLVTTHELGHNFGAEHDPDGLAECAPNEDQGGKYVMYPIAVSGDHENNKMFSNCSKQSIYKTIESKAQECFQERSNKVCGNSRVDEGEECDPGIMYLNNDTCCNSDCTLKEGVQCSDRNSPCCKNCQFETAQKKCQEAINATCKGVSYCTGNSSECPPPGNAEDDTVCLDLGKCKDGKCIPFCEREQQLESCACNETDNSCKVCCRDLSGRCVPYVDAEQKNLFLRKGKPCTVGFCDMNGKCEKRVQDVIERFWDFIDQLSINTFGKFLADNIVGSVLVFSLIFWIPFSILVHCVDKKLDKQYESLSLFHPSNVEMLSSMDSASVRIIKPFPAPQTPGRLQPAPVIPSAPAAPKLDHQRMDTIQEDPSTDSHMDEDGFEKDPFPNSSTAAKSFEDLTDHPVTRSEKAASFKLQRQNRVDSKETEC

Compound	Ki (Interstitial collagenase)	Ki [1]	Ki (Stromelysin-1)	Ki [2]
CC#CCOc1ccc(S(=O)(=O)N2C[C@H]3OC(C)(C)O[C@H]3[C@H](O)[C@@H]2C(=O)NO)cc1	> 850 nM	0.57 nM	29.6 nM	77.8 nM
CC#CCOc1ccc(S(=O)(=O)N2C[C@@H](O)[C@H]3OC(C)(C)O[C@@H]3[C@@H]2C(=O)NO)cc1	> 850 nM	1.85 nM	58.1 nM	118 nM
CC#CCOc1ccc(S(=O)(=O)N2C[C@@H](O)[C@@H](O)[C@H](OC)[C@@H]2C(=O)NO)cc1	90 nM	1.85 nM	0.43 nM	12 nM
CC#CCOc1ccc(S(=O)(=O)N2C[C@H]3OC(C)(C)O[C@H]3[C@H](OC)[C@@H]2C(=O)NO)cc1	552 nM	0.84 nM	11.5 nM	98.2 nM
CC#CCOc1ccc(S(=O)(=O)N2C[C@@H](O)[C@@H](O)[C@H](O)[C@@H]2C(=O)NO)cc1	128 nM		3.3 nM	14.2 nM
